Source: patent US7699801B2, “Advanced genetic vaccines” (priority 1995, dated 2010)

System: human carcino embryonic antigen (CEA)
Test: CEA-specific IgG1/IgG2a serum antibody ELISA after particle-mediated DNA immunization
Assay type: in vivo, mouse
Conditions: Balb/c mice, sera four weeks after treatment
Excerpt: The adjuvant and the nucleic acid molecule containing the sequence encoding the antigen of interest were co-administered via particle-mediated delivery using a gene gun. The particular antigen used for this example was the human carcino embryonic antigen (“CEA”), a human tumor antigen widely used in experiments investigating cancer therapeutic treatments. […] Without an adjuvant, Th2 type CEA-specific antibodies (IgG1) are detected at levels more than twenty-fold higher than the levels of Th1 type CEA-specific antibodies (IgG2a) in Balb/c mice.
For this protocol, a plasmid construct containing a coding region for the CEA antigen under the control of the cytomegalovirus immediate early promoter (CMV) with the CMV intron A between the promoter and the coding region was used. To form the composition, 64 μg of the plasmid, which was designated WRG7083, in 120 μL of water was added to 32 milligrams of 0.9 micron gold beads in an Eppendorf tube, i.e., 2 μg DNA/mg gold. Next, 13.5 μL of ammonium acetate solution and 135 μL of isopropanol were added, and the tube was vortexed briefly. The mixture was incubated for 15 minutes at −20° C. to precipitate the DNA onto the gold. The DNA coated beads were pelleted by a ten second spin and the supernatants were removed. The gold/DNA pellets were washed four times by vortexing in 1 mL ethanol, microfuging ten seconds, and removing supernatants. […]

human carcino embryonic antigen (CEA), sequence (P06731 35-676): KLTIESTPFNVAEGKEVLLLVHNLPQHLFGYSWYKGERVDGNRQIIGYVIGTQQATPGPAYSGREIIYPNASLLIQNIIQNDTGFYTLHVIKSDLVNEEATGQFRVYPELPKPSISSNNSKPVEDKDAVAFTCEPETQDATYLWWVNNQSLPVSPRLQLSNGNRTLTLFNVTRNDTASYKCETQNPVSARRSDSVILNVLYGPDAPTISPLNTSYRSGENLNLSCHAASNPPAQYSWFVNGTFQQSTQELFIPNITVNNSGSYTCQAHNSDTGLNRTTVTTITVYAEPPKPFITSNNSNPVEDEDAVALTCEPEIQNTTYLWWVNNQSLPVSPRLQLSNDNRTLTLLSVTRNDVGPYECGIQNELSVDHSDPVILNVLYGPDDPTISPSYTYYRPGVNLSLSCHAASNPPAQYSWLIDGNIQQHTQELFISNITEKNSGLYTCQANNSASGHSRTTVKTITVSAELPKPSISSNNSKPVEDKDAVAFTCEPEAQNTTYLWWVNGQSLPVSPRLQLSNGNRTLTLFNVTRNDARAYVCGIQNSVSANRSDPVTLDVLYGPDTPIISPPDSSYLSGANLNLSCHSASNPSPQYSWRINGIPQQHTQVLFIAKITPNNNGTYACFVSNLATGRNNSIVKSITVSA

## monophosphoryl lipid A [MPL]
0.2 mg/mL MPL on WRG7083 DNA-coated gold particles, gene gun delivery
  ratio of IgG1 to IgG2a CEA-specific antibodies: 4.5
MPL stock swabbed on skin prior to gene gun delivery of WRG7083 DNA
  ratio of IgG1 to IgG2a CEA-specific antibodies: about 4.0
